Results published in patent US20250282771A1, “TETRAHYDROISOQUINOLINE HETEROBIFUNCTIONAL BCL-XL DEGRADERS” (Treeline Biosciences, Inc., priority 2022, published 2025).

target: T1, N-terminal HiBiT tagged BCL-XL (Homo sapiens, UniProt Q07817); assay: HiBiT based degradation assay; format: cell-based; settings: HT1080 cells expressing N-terminal HiBiT tagged BCL-XL; 6 h; BCL-XL level normalized with DMSO control
T1 construct: expressed in transfected cells; host or cells: HT-1080 (ATCC CCL-121) cells stably transduced with lentivirus pLV-UBC-N-HiBiT-BCL-XL-PGK-puro
Source text: Human BCL-XL protein coding open reading frame fused with N-terminal HiBiT coding sequence was synthesized from Integrated DNA Technologies (IDT). Next, N-HiBiT-BCL-XL sequence was cloned into pLV-UBC-PGK-Puro, a lentivirus plasmid purchased from Vectorbuilder, to generate pLV-UBC-N-HiBiT-BCL-XL-PGK-puro. Lentiviral particles were generated from Lenti-X™ 293T cells (Clontech) by co-transfection of pLV-UBC-N-HiBiT-BCL-XL-PGK-puro plasmids and lentiviral packaging plasmid mix (Cellecta). HT-1080 [HT1080](ATCC CCL-121) cells were infected with the lentivirus, and HT1080 cells stably integrated with the lentiviral vectors were established by incubation with […] puromycin (Thermofisher).
HT1080 cells expressing N-terminal HiBiT tagged BCL-XL were dispensed into a 384-well plate pre-spotted with compounds at varying concentrations. Three thousand cells were seeded into each well in 40 μL of RPMI 1640 media. […] After incubation, luminescence was read on a PHERAstar FSX Plate Reader (BMG). BCL-XL degradation at each indicated concentration was normalized with the DMSO control. The BCL-XL degradation curves were plotted using a four-parameter logistic model. For compounds displaying hook effects, the curve fitting was performed using the bottom point of the hook curves (i.e., the point of Ymin) as the bottom plateau to calculate EC50.

T1 sequence (Q07817 whole entry): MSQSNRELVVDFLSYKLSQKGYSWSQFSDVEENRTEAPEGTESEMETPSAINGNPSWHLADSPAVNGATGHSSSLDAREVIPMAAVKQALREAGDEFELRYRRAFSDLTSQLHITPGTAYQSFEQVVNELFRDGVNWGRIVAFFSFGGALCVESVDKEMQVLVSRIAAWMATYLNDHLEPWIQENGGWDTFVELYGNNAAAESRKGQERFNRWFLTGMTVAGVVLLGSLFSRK

Ymin (6 h) | Structure (SMILES)
C (Ymin ≥ 70%) | Cc1c(O[C@@H](C)CCC2CCN(CC(=O)N3CCN(c4cc5c(cc4F)C(=O)N(C4CCC(=O)NC4=O)C5=O)CC3)CC2)cccc1-c1ccc(N2CCc3cccc(C(=O)Nc4nc5ccccc5s4)c3C2)nc1C(=O)O (stereo partly drawn) [Compound 128a, 6-(8-(benzo[d]thiazol-2-ylcarbamoyl)-3,4-dihydroisoquinolin-2(1H)-yl)-3-(3-(((2S)-4-(1-(2-(4-(2-(2,6-dioxopiperidin-3-yl)-6-fluoro-1,3-dioxoisoindolin-5-yl)piperazin-1-yl)-2-oxoethyl)piperidin-4-yl)butan-2-yl)oxy)-2-methylphenyl)picolinic acid]

same assay, conditions: HT1080 cells expressing N-terminal HiBiT tagged BCL-XL; 24 h; BCL-XL level normalized with DMSO control

Ymin (24 h) | Structure (SMILES)
B (50% ≤ Ymin < 70%) | Cc1c(OCCC[C@H]2CCN(CC(=O)N3CCN(c4cc5c(cc4F)C(=O)N(C4CCC(=O)NC4=O)C5=O)CC3)C2)cccc1-c1ccc(N2CCc3cccc(C(=O)Nc4nc5ccccc5s4)c3C2)nc1C(=O)O (stereo partly drawn) [Compound 122a, 6-(8-(benzo[d]thiazol-2-ylcarbamoyl)-3,4-dihydroisoquinolin-2(1H)-yl)-3-(3-(3-((3S)-1-(2-(4-(2-(2,6-dioxopiperidin-3-yl)-6-fluoro-1,3-dioxoisoindolin-5-yl)piperazin-1-yl)-2-oxoethyl)pyrrolidin-3-yl)propoxy)-2-methylphenyl)picolinic acid]
B (50% ≤ Ymin < 70%) | Cc1c(OCCC[C@@H]2CCN(CC(=O)N3CCN(c4cc5c(cc4F)C(=O)N(C4CCC(=O)NC4=O)C5=O)CC3)C2)cccc1-c1ccc(N2CCc3cccc(C(=O)Nc4nc5ccccc5s4)c3C2)nc1C(=O)O (stereo partly drawn) [Compound 122b, 6-[8-(1,3-benzothiazol-2-ylcarbamoyl)-3,4-dihydro-1H-isoquinolin-2-yl]-3-[3-[3-[(3R)-1-[2-[4-[2-(2,6-dioxo-3-piperidyl)-6-fluoro-1,3-dioxo-isoindolin-5-yl]piperazin-1-yl]-2-oxo-ethyl]pyrrolidin-3-yl]propoxy]-2-methyl-phenyl]pyridine-2-carboxylic acid]
B (50% ≤ Ymin < 70%) | Cc1c(OCCCC2CCN([C@@H](C)C(=O)N3CCN(c4cc5c(cc4F)C(=O)N(C4CCC(=O)NC4=O)C5=O)CC3)CC2)cccc1-c1ccc(N2CCc3cccc(C(=O)Nc4nc5ccccc5s4)c3C2)nc1C(=O)O (stereo partly drawn) [Compound 124a, 6-(8-(benzo[d]thiazol-2-ylcarbamoyl)-3,4-dihydroisoquinolin-2(1H)-yl)-3-(3-(3-(1-((2S)-1-(4-(2-(2,6-dioxopiperidin-3-yl)-6-fluoro-1,3-dioxoisoindolin-5-yl)piperazin-1-yl)-1-oxopropan-2-yl)piperidin-4-yl)propoxy)-2-methylphenyl)picolinic acid]
B (50% ≤ Ymin < 70%) | Cc1c(OCCCC2CCN([C@H](C)C(=O)N3CCN(c4cc5c(cc4F)C(=O)N(C4CCC(=O)NC4=O)C5=O)CC3)CC2)cccc1-c1ccc(N2CCc3cccc(C(=O)Nc4nc5ccccc5s4)c3C2)nc1C(=O)O (stereo partly drawn) [Compound 124b, 6-(8-(benzo[d]thiazol-2-ylcarbamoyl)-3,4-dihydroisoquinolin-2(1H)-yl)-3-(3-(3-(1-((2R)-1-(4-(2-(2,6-dioxopiperidin-3-yl)-6-fluoro-1,3-dioxoisoindolin-5-yl)piperazin-1-yl)-1-oxopropan-2-yl)piperidin-4-yl)propoxy)-2-methylphenyl)picolinic acid]
B (50% ≤ Ymin < 70%) | Cc1c(O[C@@H](C)CCC2CCN(CC(=O)N3CCN(c4cc5c(cc4F)C(=O)N(C4CCC(=O)NC4=O)C5=O)CC3)CC2)cccc1-c1ccc(N2CCc3cccc(C(=O)Nc4nc5ccccc5s4)c3C2)nc1C(=O)O (stereo partly drawn) [Compound 128a, 6-(8-(benzo[d]thiazol-2-ylcarbamoyl)-3,4-dihydroisoquinolin-2(1H)-yl)-3-(3-(((2S)-4-(1-(2-(4-(2-(2,6-dioxopiperidin-3-yl)-6-fluoro-1,3-dioxoisoindolin-5-yl)piperazin-1-yl)-2-oxoethyl)piperidin-4-yl)butan-2-yl)oxy)-2-methylphenyl)picolinic acid]
B (50% ≤ Ymin < 70%) | Cc1c(O[C@H](C)CCC2CCN(CC(=O)N3CCN(c4cc5c(cc4F)C(=O)N(C4CCC(=O)NC4=O)C5=O)CC3)CC2)cccc1-c1ccc(N2CCc3cccc(C(=O)Nc4nc5ccccc5s4)c3C2)nc1C(=O)O (stereo partly drawn) [Compound 128b, 6-[8-(1,3-benzothiazol-2-ylcarbamoyl)-3,4-dihydro-1H-isoquinolin-2-yl]-3-[3-[(1R)-3-[1-[2-[4-[2-(2,6-dioxo-3-piperidyl)-6-fluoro-1,3-dioxo-isoindolin-5-yl]piperazin-1-yl]-2-oxo-ethyl]-4-piperidyl]-1-methyl-propoxy]-2-methyl-phenyl]pyridine-2-carboxylic acid]
B (50% ≤ Ymin < 70%) | Cc1c(O[C@H]2CC[C@H](CCCCN3CCN(c4cc5c(cc4F)C(=O)N(C4CCC(=O)NC4=O)C5=O)CC3)CC2)cccc1-c1ccc(N2CCc3cccc(C(=O)Nc4nc5ccccc5s4)c3C2)nc1C(=O)O (stereo partly shown) [Compound 129a, 6-(8-(benzo[d]thiazol-2-ylcarbamoyl)-3,4-dihydroisoquinolin-2(1H)-yl)-3-(3-(((1s,4r)-4-(4-(4-(2-(2,6-dioxopiperidin-3-yl)-6-fluoro-1,3-dioxoisoindolin-5-yl)piperazin-1-yl)butyl)cyclohexyl)oxy)-2-methylphenyl)picolinic acid]
C (Ymin ≥ 70%) | Cc1c(OCC[C@@H](C)C2CCN(CC(=O)N3CCN(c4cc5c(cc4F)C(=O)N(C4CCC(=O)NC4=O)C5=O)CC3)CC2)cccc1-c1ccc(N2CCc3cccc(C(=O)Nc4nc5ccccc5s4)c3C2)nc1C(=O)O (stereo partly shown) [Compound 130b]

Further lines, the compound ahead of its results:

Structure (SMILES) | Ymin (24 h)
Cc1c(OCCC[C@@H]2CCN(CC(=O)N3CCN(c4cc5c(cc4F)C(=O)N(C4CCC(=O)NC4=O)C5=O)CC3)CC2(F)F)cccc1-c1ccc(N2CCc3cccc(C(=O)Nc4nc5ccccc5s4)c3C2)nc1C(=O)O (stereo partly drawn) [Compound 120a, 6-(8-(benzo[d]thiazol-2-ylcarbamoyl)-3,4-dihydroisoquinolin-2(1H)-yl)-3-(3-(3-((4R)-1-(2-(4-(2-(2,6-dioxopiperidin-3-yl)-6-fluoro-1,3-dioxoisoindolin-5-yl)piperazin-1-yl)-2-oxoethyl)-3,3-difluoropiperidin-4-yl)propoxy)-2-methylphenyl)picolinic acid] | B (50% ≤ Ymin < 70%)
Cc1c(OCCC[C@H]2CCN(CC(=O)N3CCN(c4cc5c(cc4F)C(=O)N(C4CCC(=O)NC4=O)C5=O)CC3)CC2(F)F)cccc1-c1ccc(N2CCc3cccc(C(=O)Nc4nc5ccccc5s4)c3C2)nc1C(=O)O (stereo partly shown) [Compound 120b] | C (Ymin ≥ 70%)
Cc1cc(OCCCC2CCN(CCN3CCN(c4cc5c(cc4F)C(=O)N(C4CCC(=O)NC4=O)C5=O)CC3)CC2)ccc1-c1ccc(N2CCc3cccc(C(=O)Nc4nc5ccccc5s4)c3C2)nc1C(=O)O (stereo not shown) [Compound 121] | A (Ymin < 50%)
Cc1c(OCCCCN2CCC(CN3CCN(c4cc5c(cc4F)C(=O)N(C4CCC(=O)NC4=O)C5=O)CC3)CC2)cccc1-c1ccc(N2CCc3cccc(C(=O)Nc4nc5ccccc5s4)c3C2)nc1C(=O)O (stereo not shown) [Compound 123, 6-[8-(1,3-benzothiazol-2-ylcarbamoyl)-3,4-dihydro-1H-isoquinolin-2-yl]-3-[3-[4-[4-[[4-[2-(2,6-dioxo-3-piperidyl)-6-fluoro-1,3-dioxo-isoindolin-5-yl]piperazin-1-yl]methyl]-1-piperidyl]butoxy]-2-methyl-phenyl]pyridine-2-carboxylic acid] | B (50% ≤ Ymin < 70%)
Cc1c(OCCC(F)(F)C2CCN(CC(=O)N3CCN(c4cc5c(cc4F)C(=O)N(C4CCC(=O)NC4=O)C5=O)CC3)CC2)cccc1-c1ccc(N2CCc3cccc(C(=O)Nc4nc5ccccc5s4)c3C2)nc1C(=O)O (stereo not shown) [Compound 126, 6-(8-(benzo[d]thiazol-2-ylcarbamoyl)-3,4-dihydroisoquinolin-2(1H)-yl)-3-(3-(3-(1-(2-(4-(2-(2,6-dioxopiperidin-3-yl)-6-fluoro-1,3-dioxoisoindolin-5-yl)piperazin-1-yl)-2-oxoethyl)piperidin-4-yl)-3,3-difluoropropoxy)-2-methylphenyl)picolinic acid] | B (50% ≤ Ymin < 70%)
Cc1c(OCC(F)(F)CC2CCN(CC(=O)N3CCN(c4cc5c(cc4F)C(=O)N(C4CCC(=O)NC4=O)C5=O)CC3)CC2)cccc1-c1ccc(N2CCc3cccc(C(=O)Nc4nc5ccccc5s4)c3C2)nc1C(=O)O (stereo not shown) [Compound 127, 6-(8-(benzo[d]thiazol-2-ylcarbamoyl)-3,4-dihydroisoquinolin-2(1H)-yl)-3-(3-(3-(1-(2-(4-(2-(2,6-dioxopiperidin-3-yl)-6-fluoro-1,3-dioxoisoindolin-5-yl)piperazin-1-yl)-2-oxoethyl)piperidin-4-yl)-2,2-difluoropropoxy)-2-methylphenyl)picolinic acid] | B (50% ≤ Ymin < 70%)
Cc1c(OCC[C@H](C)C2CCN(CC(=O)N3CCN(c4cc5c(cc4F)C(=O)N(C4CCC(=O)NC4=O)C5=O)CC3)CC2)cccc1-c1ccc(N2CCc3cccc(C(=O)Nc4nc5ccccc5s4)c3C2)nc1C(=O)O (stereo partly drawn) [Compound 130a, 6-[8-(1,3-benzothiazol-2-ylcarbamoyl)-3,4-dihydro-1H-isoquinolin-2-yl-3-[3-[(3S)-3-1-[2-[4-[2-(2,6-dioxo-3-piperidyl)-6-fluoro-1,3-dioxo-isoindolin-5-yl]piperazin-1-yl]-2-oxo-ethyl]-4-piperidyl]butoxy]-2-methyl-phenyl]pyridine-2-carboxylic acid] | B (50% ≤ Ymin < 70%)
